Experimental data as given in patent publication US5679828A (priority 1995, dated 1997).
pEC50, pIC50: −log10 of the molar value. Like-named read-outs stand apart in the source and are kept apart here.

What was measured:
[1] = system: HIV induced membrane fusion; assay: cells; format: cell-based, HIV-1LAI; conditions: for IC100: Human immunodeficiency virus 1, CEM-4, 24 h, read-out: Fusion Assay IC100
Protocol: (§1) MOLT-4 cells (7×10^4) were incubated with HIV-1LAI chronically infected CEM cells (10^4) in 96-well half-area flat-bottomed plates (Costar) in 100 microliters culture medium were incubated with the cell mixtures at 37° C. for 24 hours. Multinucleated syncytia were enumerated by microscopic examination of the entire contents of each well.

[2] = system: HIV-1; assay: HIV-1 replication in acutely infected H9 lymphocytes (p24 antigen ELISA); format: cell-based, HIV-1 (IIIB isolate); design: TI50: unit not given beside the values; conditions: for EC50 / TI50: Table 2, H9
Protocol: The cell lines were used in experiments only when in the logarithmic phase of growth, whereas uninfected peripheral blood mononuclear cells (PBMCs) were first stimulated with PHA (1 μg/mL) for three days. […] The cell lines and PBMCs were washed thoroughly to remove unadsorbed virions and resuspended at 4×10^5 cells/ml in complete medium or complete medium with 10% v/v interleukin 2 (IL-2), respectively. One ml. aliquots were placed into wells of 24-well culture plates containing an equal volume of test compounds (diluted in the appropriate culture medium). The toxicity of each compound was assessed by determining the number of compound-exposed uninfected cells that remained after four days at 37° C. and 5% CO2. A p24 antigen ELISA assay was used to determine the level of virus released in the medium of the HIV-infected cultures. The p24 antigen assay used a HIV-1 anti-p24 specific monoclonal antibody as the capture antibody coated onto 96-well plates. […] P24 in the culture medium was quantitated against a standard curve containing known amounts of p24. The effective (EC50) and inhibitory (IC50) concentrations for anti-HIV activity and cytotoxicity, respectively, were determined.
^a Concentration which inhibits viral replication in H9 cells by 50%

[3] = system: HIV-1; conditions: cited from earlier work
[4] = biological target: T1, HIV-1 reverse transcriptase (Human immunodeficiency virus type 1 group M subtype B, UniProt P04585); assay: HIV-1 reverse transcriptase assay; format: biochemical, HIV-1 IIIB
T1 construct: virion associated HIV-1 IIIB reverse transcriptase; endogenous in cells; host or cells: HIV-1 IIIB virions lysed in Triton X-100
Protocol: Ten microliters of virion associated HIV-1 IIIB reverse transcriptase in 1% Triton X-100 was mixed with 50 microliters of a reaction cocktail containing 50 mM Tri-HCl (pH 7.8), 75 mM KCl, 2 mM dithiothreitol, 5 mM MgCl2, 5 mg/ml poly (A) [Pharmacia], 0.25 unit/ml oligo(dT)[Pharmacia]; 0.05% Nonidet P40 and 10 mCi/ml ^32 P-dTTP in the presence of various concentrations of test compound. After incubating for one hour at 37° C., 40 microliters of the reaction mixture was applied to a Schleicher & Schuell NA 45 membrane saturated with […] (0.3M NaCl, 30 mM sodium citrate, pH 7.0) in a Schleicher & Schuell Minifold over one sheet of GB003 filter paper. Each well of the minifold was washed four times with 2×SSC. Autoradiography was performed, and radioactivity was quantified with a Packard Matrix (Meriden, Conn.) 9600 direct beta counter.

[5] = system: cells of the fusion assay; assay: Cytotoxicity noted in the fusion assay; format: cell-based; conditions: Table 1 footnotes; one-day fusion assay
Protocol: as §1, with “Cell fusions were performed as described in Matthews et al., Proc. Natl. Acad. Sci. USA, 1987, 84, 5424-5428. MOLT-4” for “MOLT-4”
^d No noticeable cytotoxicity at 100 μg/mL
^e Toxic to the cells at 80 μg/mL in oneday fusion assay
^f Toxic at 40 μg/mL under the assay conditions

[6] = system: HIV-1; assay: HIV-1 replication in PHA-stimulated PBMCs (p24 antigen ELISA); format: cell-based, HIV-1 (IIIB isolate); design: TI50: unit not given beside the values; conditions: for EC50 / pEC50: Human immunodeficiency virus 1, PBMC; for pEC50: PHA-stimulated PBMCs, read-out: EC50; for T.I. values in PBMCs compared with H9 cells: PBMCs versus H9 cells; for TI50: Table 2, PBMCs
Protocol: The T cell line, H9, and the promonocytic cell line, U937, were maintained separately in continuous culture with complete medium (RPMI 1640 with 10% fetal calf serum) at 5% CO2 and 37° C. The cell lines were used in experiments only when in the logarithmic phase of growth, whereas uninfected peripheral blood mononuclear cells (PBMCs) were first stimulated with PHA (1 μg/mL) for three days. All cell targets were incubated with HIV-1 (IIIB isolate, TCID50 10^4 IU/ml, at a multiplicity of infection of 0.01-0.01 IU/cell) for one hour at 37° C. and 5% CO2. The cell lines and PBMCs were washed thoroughly to remove unadsorbed virions and resuspended at 4×10^5 cells/ml in complete medium or complete medium with 10% v/v interleukin 2 (IL-2), respectively. One ml. aliquots were placed into wells of 24-well culture plates containing an equal volume of test compounds (diluted in the appropriate culture medium). The toxicity of each compound was assessed by determining the number of compound-exposed uninfected cells that remained after four days at 37° C. and 5% CO2. A p24 antigen ELISA assay was used to determine the level of virus released in the medium of the HIV-infected cultures. The p24 antigen assay used a HIV-1 anti-p24 specific monoclonal antibody as the capture antibody coated onto 96-well plates. Following a sample incubation period, rabbit serum containing antibodies for HIV-1 p24 was used to tag any p24 "captured: onto the microtiter well surface. Peroxidase conjugated goat anti-rabbit serum was then used to tag HIV-1 p24 specific rabbit antibodies that had complexed with captured p24. […] The cutoff for the p24 ELISA assay was 12.5 pg/ml. P24 in the culture medium was quantitated against a standard curve containing known amounts of p24. The effective (EC50) and inhibitory (IC50) concentrations for anti-HIV activity and cytotoxicity, respectively, were determined.

[7] = Human immunodeficiency virus 1, H9, Table 1, inhibits viral replication in H9 cells by 50%, read-out: EC50
[8] = earlier data, HIV-1 replication in H9 lymphocyte cells
[9] = Table 1, inhibit 50% of HIV-1 RT activity, read-out: HIV-RT Assay IC50
[10] = Human immunodeficiency virus 1, Lymphocyte, acutely infected H9 lymphocytes
[11] = Table 1, H9 cells, therapeutic index
[12] = acutely infected H9 lymphocytes
[13] = Human immunodeficiency virus 1, Lymphocyte
[14] = earlier data, H9 lymphocyte cells

SMILES	IC100 [1]	pEC50 [2, 7]	pIC50 [4, 9]	T.I. [2, 11]	cytotoxicity in fusion assay (footnotes d, e, f) [5]	also measured
C=C(C)[C@@H]1CC[C@]2(C(=O)O)CC[C@]3(C)[C@H](CC[C@@H]4[C@@]5(C)CC[C@H](O)C(C)(C)[C@@H]5CC[C@]43C)[C@@H]12 [Compound 1, betulinic acid, reference compound]	> 100 µg/mL	5.85	< 3.66			pEC50 [3, 8]: 5.85
C=C(C)[C@@H]1CC[C@]2(C(=O)O)CC[C@]3(C)[C@H](CC[C@@H]4[C@@]5(C)CC[C@H](OC(=O)C(C)(C)CC(=O)O)C(C)(C)[C@@H]5CC[C@]43C)[C@@H]12 [Compound 2, 3-O-(2',2'-dimethylsuccinyl)betulinic acid]	20 µg/mL	5.57	< 3.77	5.9	d (No noticeable cytotoxicity at 100 μg/mL)	inhibition of syncytia formation, compounds 2 and 3 compared ([1]; compound 3 versus compound 2): inhibited syncytia formation at the same concentration; pEC50 [2, 10]: 5.57; T.I. [2, 12]: 5.9
C=C(C)[C@@H]1CC[C@]2(C(=O)O)CC[C@]3(C)[C@H](CC[C@@H]4[C@@]5(C)CC[C@H](OC(=O)CC(C)(C)C(=O)O)C(C)(C)[C@@H]5CC[C@]43C)[C@@H]12 [Compound 3, 3-O-(3',3'-dimethylsuccinyl)-betulinic acid]					d (No noticeable cytotoxicity at 100 μg/mL)	pEC50 [2, 13]: > 10.77
C=C(C)[C@@H]1CC[C@]2(C(=O)O)CC[C@]3(C)[C@H](CC[C@@H]4[C@@]5(C)CC[C@H](OC(=O)CC(C)(C)CC(=O)O)C(C)(C)[C@@H]5CC[C@]43C)[C@@H]12 [Compound 4, 3-O-(3',3'-dimethylglutaryl)-betulinic acid]	30 µg/mL		< 3.78		d (No noticeable cytotoxicity at 100 μg/mL)	
C=C(C)[C@@H]1CC[C@]2(C(=O)O)CC[C@]3(C)[C@H](CC[C@@H]4[C@@]5(C)CC[C@H](OC(=O)COCC(=O)O)C(C)(C)[C@@H]5CC[C@]43C)[C@@H]12 [Compound 5, 3-O-diglycolyl-betulinic acid]	40 µg/mL	8.00	< 3.76	1,172.0	e (Toxic to the cells at 80 μg/mL in oneday fusion assay)	EC50 [2, 13]: 10 ng/mL; TI50 [2]: 1,500
CC(C)[C@@H]1CC[C@]2(C(=O)O)CC[C@]3(C)[C@H](CC[C@@H]4[C@@]5(C)CC[C@H](O)C(C)(C)[C@@H]5CC[C@]43C)[C@@H]12 [Compound 6, dihydrobetulinic acid, reference compound]	> 100 µg/mL	6.05		14.0		T.I. [3, 14]: 14; pEC50 ([3]; earlier data, anti-HIV activity, unit inferred): 6.05; pIC50 [4]: < 3.66
CC(C)[C@@H]1CC[C@]2(C(=O)O)CC[C@]3(C)[C@H](CC[C@@H]4[C@@]5(C)CC[C@H](OC(=O)C(C)(C)CC(=O)O)C(C)(C)[C@@H]5CC[C@]43C)[C@@H]12 [Compound 7, 3-O-(2',2'-dimethylsuccinyl)-dihydrobetulinic acid]		6.25		13.8		pEC50 [2, 10]: 6.25; T.I. [2, 12]: 13.8
CC(C)[C@@H]1CC[C@]2(C(=O)O)CC[C@]3(C)[C@H](CC[C@@H]4[C@@]5(C)CC[C@H](OC(=O)CC(C)(C)C(=O)O)C(C)(C)[C@@H]5CC[C@]43C)[C@@H]12 [Compound 8, 3-O-(3',3'-dimethylsuccinyl)-dihydrobetulinic acid]	20 µg/mL		< 3.77	14,000-98,000	f (Toxic at 40 μg/mL under the assay conditions)	pEC50 [2, 10]: > 10.77; T.I. [2, 12]: more than 400,000; EC50 [6]: 1.75 ng/mL; pEC50 [6]: 8.52; T.I. values in PBMCs compared with H9 cells [6]: lower than those in H9 cells; TI50 [6]: 2,286
CC(C)[C@@H]1CC[C@]2(C(=O)O)CC[C@]3(C)[C@H](CC[C@@H]4[C@@]5(C)CC[C@H](OC(=O)CC(C)(C)CC(=O)O)C(C)(C)[C@@H]5CC[C@]43C)[C@@H]12 [Compound 9, 3-O-(3',3'-dimethylglutaryl)-dihydrobetulinic acid]	20 µg/mL	8.24	< 3.78	1,017.0	f (Toxic at 40 μg/mL under the assay conditions)	EC50 [6]: 17.5 ng/mL; pEC50 [6]: 7.53; T.I. values in PBMCs compared with H9 cells [6]: lower than those in H9 cells; TI50 [6]: 229
CC(C)[C@@H]1CC[C@]2(C(=O)O)CC[C@]3(C)[C@H](CC[C@@H]4[C@@]5(C)CC[C@H](OC(=O)COCC(=O)O)C(C)(C)[C@@H]5CC[C@]43C)[C@@H]12 [Compound 10, 3-O-diglycolyl-dihydrobetulinic acid]	40 µg/mL	8.25	< 3.76	2,344.0	e (Toxic to the cells at 80 μg/mL in oneday fusion assay)	EC50 [2, 13]: 3.2 ng/mL; TI50 [2]: 2,344
CC1(C)Oc2ccc3ccc(=O)oc3c2[C@@H](OC(=O)[C@@]23CC[C@@](C)(C(=O)O2)C3(C)C)[C@H]1OC(=O)[C@@]12CC[C@@](C)(C(=O)O1)C2(C)C [DCK, 3',4'-di-O-(-)-camphanoyl-(+)-cis-khellactone]						therapeutic index (T.I.) ([3]; H9 lymphocyte cells, background): 136,719; pEC50 ([3]; HIV replication in H9 lymphocyte cells, background): 9.40
CC(=O)[C@@H]1CC[C@]2(C(=O)O)CC[C@]3(C)[C@H](CC[C@@H]4[C@@]5(C)CC[C@H](O)C(C)(C)[C@@H]5CC[C@]43C)[C@@H]12 [platanic acid]						T.I. [3, 14]: 14; pEC50 [3, 8]: 5.19
